Measurements: patent publication US12583858B2 (Genentech, Inc., priority 2015, dated 2026)

What follows are molecules tested against T1, TDO2 (Homo sapiens, UniProt P48775) (assay: TDO2 cell assay (NFK GreenScreen, SW48 cells)). Conditions: SW48 cells (high TDO expressing), 200 uM tryptophan, 24 hours; Table 3; read-out: TDO2 Cell Fluor EC50.
T1 construct: decreased levels of NFK in SW48 cells (high TDO expressing cells)
Assay type: cell-based

T1 sequence (P48775 whole entry): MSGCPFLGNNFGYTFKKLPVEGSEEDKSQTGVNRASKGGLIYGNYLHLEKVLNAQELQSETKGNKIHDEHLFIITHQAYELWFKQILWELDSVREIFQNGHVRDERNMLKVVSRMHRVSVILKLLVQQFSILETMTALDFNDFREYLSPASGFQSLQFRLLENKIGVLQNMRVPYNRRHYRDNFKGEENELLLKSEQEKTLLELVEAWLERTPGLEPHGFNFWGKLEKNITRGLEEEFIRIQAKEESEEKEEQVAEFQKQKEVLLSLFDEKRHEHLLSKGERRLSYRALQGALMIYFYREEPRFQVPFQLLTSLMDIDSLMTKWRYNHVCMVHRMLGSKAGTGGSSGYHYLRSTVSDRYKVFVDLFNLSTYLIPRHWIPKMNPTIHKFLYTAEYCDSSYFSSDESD

Compound	EC50 [µM]
O[C@@H]1COCC[C@H]1[C@@H]1c2c(F)cccc2-c2cncn21 (single isomer, unassigned) [Example 120c]	14
O[C@@H]1COCC[C@H]1[C@@H]1c2c(F)cccc2-c2cncn21 (single isomer, unassigned) [Example 120d]	> 25
Nc1ccc2c(n1)CCC(C1c3ccccc3-c3cncn31)C2O (single isomer, unassigned) [Example 121a]	0.84
Nc1ccc2c(n1)CCC(C1c3ccccc3-c3cncn31)C2O (single isomer, unassigned) [Example 121b]	> 25
Nc1ccc2c(n1)CCC(C1c3ccccc3-c3cncn31)C2O (single isomer, unassigned) [Example 121c]	0.22
Nc1ccc2c(n1)CCC(C1c3ccccc3-c3cncn31)C2O (single isomer, unassigned) [Example 121d]	17
Nc1ccc2c(n1)CCC(C1c3ccccc3-c3cncn31)C2O (single isomer, unassigned) [Example 121e]	16
Nc1ccc2c(n1)CCC(C1c3ccccc3-c3cncn31)C2O (single isomer, unassigned) [Example 121f]	24
Nc1ccc2c(n1)CCC(C1c3ccccc3-c3cncn31)C2O (single isomer, unassigned) [Example 121g]	> 25
Nc1ccc2c(n1)CCC(C1c3ccccc3-c3cncn31)C2O (single isomer, unassigned) [Example 121h]	4.8
NC(=O)c1ccc2c(c1)C(O)C(C1c3ccccc3-c3cncn31)CC2 (single isomer, unassigned) [Example 122b]	12
NC(=O)c1ccc2c(c1)C(O)C(C1c3ccccc3-c3cncn31)CC2 (single isomer, unassigned) [Example 122c]	23
NC(=O)c1ccc2c(c1)C(O)C(C1c3ccccc3-c3cncn31)CC2 (single isomer, unassigned) [Example 122d]	0.37
NC(=O)c1ccc2c(c1)C(O)C(C1c3ccccc3-c3cncn31)CC2 (single isomer, unassigned) [Example 122e]	0.09
NC(=O)c1ccc2c(c1)C(O)C(C1c3ccccc3-c3cncn31)CC2 (single isomer, unassigned) [Example 122f]	0.91
O[C@@H]1c2nccnc2CC[C@H]1[C@H]1c2ccccc2-c2cncn21 (single isomer, unassigned) [Example 123a]	24
O[C@@H]1c2nccnc2CC[C@H]1[C@H]1c2ccccc2-c2cncn21 (single isomer, unassigned) [Example 123b]	0.23
Cc1ncc2c(n1)CCC(C1c3ccccc3-c3cncn31)C2O (single isomer, unassigned) [Example 124a]	16
Cc1ncc2c(n1)CCC(C1c3ccccc3-c3cncn31)C2O (single isomer, unassigned) [Example 124b]	0.29
O[C@@H]1c2ncccc2CC[C@H]1[C@H]1c2ccccc2-c2cncn21 (single isomer, unassigned) [Example 126a]	> 25
O[C@@H]1c2ncccc2CC[C@H]1[C@H]1c2ccccc2-c2cncn21 (single isomer, unassigned) [Example 126b]	0.083
CC(C)(C)OC(=O)N1CCCC(O)(C2c3ccccc3-c3cncn32)C1 (single isomer, unassigned) [Example 127a]	3.7
CC(C)(C)OC(=O)N1CCCC(O)(C2c3ccccc3-c3cncn32)C1 (single isomer, unassigned) [Example 127b]	0.89
CC(C)(C)OC(=O)N1CCCC(O)(C2c3ccccc3-c3cncn32)C1 (single isomer, unassigned) [Example 127c]	0.76
OC1(C2c3ccccc3-c3cncn32)CCOC1 (single isomer, unassigned) [Example 129a]	> 25

Compound	EC50 [µM]
OC1(C2c3ccccc3-c3cncn32)CCOC1 (single isomer, unassigned) [Example 129b]	17
OC1(C2c3ccccc3-c3cncn32)CCOC1 (single isomer, unassigned) [Example 129c]	4.5
OC1(C2c3ccccc3-c3cncn32)CCOC1 (single isomer, unassigned) [Example 129d]	2.6
Cn1cc2c(n1)CCC(C1c3ccccc3-c3cncn31)C2O (single isomer, unassigned) [Example 130a]	1.5
Cn1cc2c(n1)CCC(C1c3ccccc3-c3cncn31)C2O (single isomer, unassigned) [Example 130b]	0.65
Cn1cc2c(n1)CCC(C1c3ccccc3-c3cncn31)C2O (single isomer, unassigned) [Example 130c]	> 25
Cn1cc2c(n1)CCC(C1c3ccccc3-c3cncn31)C2O (single isomer, unassigned) [Example 130e]	3.1
Cn1cc2c(n1)CCC(C1c3ccccc3-c3cncn31)C2O (single isomer, unassigned) [Example 130f]	1.2
Cn1cc2c(n1)CCC(C1c3ccccc3-c3cncn31)C2O (single isomer, unassigned) [Example 130g]	4.5
Cn1cc2c(n1)CCC(C1c3ccccc3-c3cncn31)C2O (single isomer, unassigned) [Example 130h]	> 25
OC1c2ccnn2CCCC1C1c2ccccc2-c2cncn21 (single isomer, unassigned) [Example 133a]	> 25
OC1c2ccnn2CCCC1C1c2ccccc2-c2cncn21 (single isomer, unassigned) [Example 133b]	0.94
OC1c2ccnn2CCCC1C1c2ccccc2-c2cncn21 (single isomer, unassigned) [Example 133c]	6
OC1c2ccnn2CCCC1C1c2ccccc2-c2cncn21 (single isomer, unassigned) [Example 133d]	> 25
OC1c2ccnn2CCCC1C1c2ccccc2-c2cncn21 (single isomer, unassigned) [Example 133e]	0.28
OC1c2ccnn2CCCC1C1c2ccccc2-c2cncn21 (single isomer, unassigned) [Example 133f]	> 25
OC1c2ccnn2CCCC1C1c2ccccc2-c2cncn21 (single isomer, unassigned) [Example 133g]	3
OC1c2ccnn2CCCC1C1c2ccccc2-c2cncn21 (single isomer, unassigned) [Example 133h]	> 25
CC(C)C(O)C1c2ccc(F)cc2-c2cncn21 (single isomer, unassigned) [Example 135a]	> 25
CC(C)C(O)C1c2ccc(F)cc2-c2cncn21 (single isomer, unassigned) [Example 135c]	3
CC(C)C(O)C1c2ccc(F)cc2-c2cncn21 (single isomer, unassigned) [Example 135d]	0.13
OC1c2cccn2CCC1C1c2ccccc2-c2cncn21 (single isomer, unassigned) [Example 136c]	6.7
OC1c2cccn2CCC1C1c2ccccc2-c2cncn21 (single isomer, unassigned) [Example 136d]	15
OC1c2cccn2CCC1C1c2ccccc2-c2cncn21 (single isomer, unassigned) [Example 136e]	0.64
OC1c2cccn2CCC1C1c2ccccc2-c2cncn21 (single isomer, unassigned) [Example 136g]	0.2
